Test results: PubChem BioAssay AID2042 (NMMLSC, 2009)
Active and inactive are the calls of the source.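 Rule for the calls: active = EC50 at most 30 µM plus a dose-response curve spanning at least 25% response; inactive = the rest.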

Target: GTPase HRas (Homo sapiens) (UniProt P01112)
Test: activated Ras GTP binding inhibitors, SAR follow-up, biochemical, oxadiazole analogs, activated mutant, multiplex flow cytometry (AID 2042)
Settings: GST-Ras beads, Bodipy-FL-GTP binding; for Ki: measured here: Ki calculated from EC50

GTPase HRas (Homo sapiens), sequence (P01112 whole entry, looked up): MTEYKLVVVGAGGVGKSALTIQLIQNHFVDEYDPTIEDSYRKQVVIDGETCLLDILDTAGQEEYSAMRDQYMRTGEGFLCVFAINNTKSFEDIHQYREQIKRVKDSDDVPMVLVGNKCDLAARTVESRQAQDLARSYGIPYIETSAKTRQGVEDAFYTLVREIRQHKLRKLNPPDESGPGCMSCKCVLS

| SMILES | EC50 | Ki [µM] |
| --- | --- | --- |
| COc1ccc(-c2noc(CCCCC(=O)N3CCN(c4cc(C)ccc4C)CC3)n2)cc1 | > 30 µM (inactive) | – |
| COc1ccc(-c2noc(CCC(=O)N3CCN(c4ccccc4Cl)CC3)n2)cc1 | > 30 µM (inactive) | – |
| COc1ccc(-c2noc(CCC(=O)N3CCN(c4ccccc4C)CC3)n2)cc1 | > 30 µM (inactive) | – |
| COc1ccc(-c2noc(CCC(=O)N3CCN(c4ccccc4F)CC3)n2)cc1 | inactive | 0.06 |
| COc1ccc(-c2ccc(CCC(=O)N3CCN(c4cc(C)ccc4C)CC3)o2)cc1 | > 30 µM (inactive) | – |
| Cc1ccc(C)c(N2CCN(C(=O)CCc3nc(-c4cccc(F)c4)no3)CC2)c1 | > 30 µM (inactive) | – |
| COc1ccc(-c2noc(CCC(=O)N3CCN(c4ccc(Cl)cc4)CC3)n2)cc1 | > 30 µM (inactive) | – |
| COc1ccc(-c2noc(CCC(=O)N3CCN(c4ccc(OC)cc4)CC3)n2)cc1 | > 30 µM (inactive) | – |
| Cc1ccc(C)c(N2CCN(C(=O)CCc3nc(-c4cccc(C(F)(F)F)c4)no3)CC2)c1 | > 30 µM (inactive) | – |
| COc1ccc(-c2noc(CCC(=O)N3CCN(c4cccc(C)c4)CC3)n2)cc1 | > 30 µM (inactive) | – |
| COc1ccc(-c2noc(CCC(=O)N3CCN(c4ccccc4)CC3)n2)cc1 | > 30 µM (inactive) | – |
| Cc1ccc(C)c(N2CCN(C(=O)CCc3nc(-c4ccccc4Cl)no3)CC2)c1 | > 30 µM (inactive) | – |
| COc1ccc(-c2noc(CCC(=O)N3CCN(c4ccc(Br)cc4)CC3)n2)cc1 | > 30 µM (inactive) | – |
| COc1ccc(-c2noc(CCCC(=O)N3CCN(c4cc(C)ccc4C)CC3)n2)cc1 | > 30 µM (inactive) | – |
| COc1ccc(-c2cc(CCC(=O)N3CCN(c4cc(C)ccc4C)CC3)[nH]n2)cc1 | > 30 µM (inactive) | – |
| Cc1ccc(-c2noc(CCC(=O)N3CCN(c4cc(C)ccc4C)CC3)n2)cc1 | > 30 µM (inactive) | – |
| COc1ccc(-c2noc(CCC(=O)N3CCN(c4cccc(Br)c4)CC3)n2)cc1 | > 30 µM (inactive) | – |
| Cc1ccc(C)c(N2CCN(C(=O)CCc3nc(-c4ccc(N(C)C)cc4)no3)CC2)c1 | > 30 µM (inactive) | – |
| Cc1ccc(C)c(N2CCN(C(=O)CCc3nc(-c4ccc(Br)cc4)no3)CC2)c1 | > 30 µM (inactive) | – |
| COc1ccc(-c2noc(CCC(=O)N3CCN(c4ccccc4Br)CC3)n2)cc1 | > 30 µM (inactive) | – |
| COc1ccc(-c2coc(CCC(=O)N3CCN(c4cc(C)ccc4C)CC3)n2)cc1 | > 30 µM (inactive) | – |
| COc1ccc(-c2noc(CCC(=O)N3CCN(c4ccccc4OC)CC3)n2)cc1 | > 30 µM (inactive) | – |
| COc1ccc(-c2noc(CCC(=O)N3CCN(c4cccc(OC)c4)CC3)n2)cc1 | > 30 µM (inactive) | – |
| COc1ccc(-c2noc(CCC(=O)N3CCN(c4cccc(C)c4C)CC3)n2)cc1 | > 30 µM (inactive) | – |
| Cc1ccc(C)c(N2CCN(C(=O)CCc3nc(-c4ccccc4)no3)CC2)c1 | > 30 µM (inactive) | – |
| Cc1ccc(C)c(N2CCN(C(=O)CCc3nc(-c4ccc(Cl)cc4)no3)CC2)c1 | > 30 µM (inactive) | – |

| SMILES | EC50 | Ki [µM] |
| --- | --- | --- |
| Cc1ccc(C)c(N2CCN(C(=O)CCc3nc(-c4ccc(F)cc4)no3)CC2)c1 | > 30 µM (inactive) | – |
| COc1ccc(-c2ccc(CCC(=O)N3CCN(c4cc(C)ccc4C)CC3)s2)cc1 | > 30 µM (inactive) | – |
| Cc1ccc(C)c(N2CCN(C(=O)CCc3nc(-c4cccc(Cl)c4)no3)CC2)c1 | > 30 µM (inactive) | – |
| Cc1ccc(C)c(N2CCN(C(=O)CCc3nc(-c4ccc(C(F)(F)F)cc4)no3)CC2)c1 | > 30 µM (inactive) | – |
| COc1ccc(-c2noc(CCC(=O)N3CCN(c4ccc(F)cc4)CC3)n2)cc1 | > 30 µM (inactive) | – |
| COc1ccc(-c2noc(CCC(=O)N3CCC(c4cc(C)ccc4C)CC3)n2)cc1 | > 30 µM (inactive) | – |
| COc1ccc(-c2noc(CCC(=O)N3CCN(c4cccc(F)c4)CC3)n2)cc1 | > 30 µM (inactive) | – |
| COc1ccccc1-c1noc(CCC(=O)N2CCN(c3cc(C)ccc3C)CC2)n1 | > 30 µM (inactive) | – |
| COc1ccc(-c2noc(CCC(=O)N3CCN(c4ccccc4C(F)(F)F)CC3)n2)cc1 | > 30 µM (inactive) | – |
| Cc1ccc(C)c(N2CCN(C(=O)CCc3nc(-c4ccccc4Br)no3)CC2)c1 | > 30 µM (inactive) | – |
| COc1ccc(-c2noc(CCC(=O)N3CCN(c4ccc(C(F)(F)F)cc4)CC3)n2)cc1 | > 30 µM (inactive) | – |
| COc1ccc(-c2noc(CCC(=O)N3CCN(c4cc(C)ccc4C)CC3)n2)cc1 | inactive | 0.12 |
| COc1ccc(-c2noc(CCC(=O)N3CCN(c4ccc(C)cc4)CC3)n2)cc1 | > 30 µM (inactive) | – |
| COc1ccc(-c2noc(CCC(=O)N3CCN(c4cccc(Cl)c4)CC3)n2)cc1 | > 30 µM (inactive) | – |
| COc1ccc(-c2ccc(CCC(=O)N3CCN(c4cc(C)ccc4C)CC3)[nH]2)cc1 | > 30 µM (inactive) | – |
| Cc1ccc(C)c(N2CCN(C(=O)CCc3nc(-c4cccc(Br)c4)no3)CC2)c1 | > 30 µM (inactive) | – |
| COc1ccc(-c2noc(CCC(=O)N3CCN(c4cccc(C(F)(F)F)c4)CC3)n2)cc1 | > 30 µM (inactive) | – |
| Cc1cccc(-c2noc(CCC(=O)N3CCN(c4cc(C)ccc4C)CC3)n2)c1 | > 30 µM (inactive) | – |
| COc1ccc(-c2cccc(CCC(=O)N3CCN(c4cc(C)ccc4C)CC3)c2)cc1 | > 30 µM (inactive) | – |
| COc1ccc(-c2cc(CCC(=O)N3CCN(c4cc(C)ccc4C)CC3)on2)cc1 | > 30 µM (inactive) | – |
| Cc1ccc(C)c(N2CCN(C(=O)CCc3nc(-c4ccccc4C)no3)CC2)c1 | > 30 µM (inactive) | – |
| COc1cccc(-c2noc(CCC(=O)N3CCN(c4cc(C)ccc4C)CC3)n2)c1 | inactive | 0.28 |
| COc1ccc(-c2noc(CC(=O)N3CCN(c4cc(C)ccc4C)CC3)n2)cc1 | > 30 µM (inactive) | – |
| Cc1ccc(C)c(N2CCN(C(=O)CCc3nc(-c4ccccc4F)no3)CC2)c1 | > 30 µM (inactive) | – |
| Cc1ccc(C)c(N2CCN(C(=O)CCc3nc(-c4ccccc4C(F)(F)F)no3)CC2)c1 | > 30 µM (inactive) | – |
